The values that follow come from patent publication US7763728B2, “Tetrahydropyridothiophenes” (4SC AG, priority 2005, dated 2010).

The subject of test [1] is RKO (RKOp27) human colon adenocarcinoma cells. Nature of the test: Alamar Blue cell viability assay, anti-proliferative/cytotoxic activity on proliferating (uninduced) RKOp27 cells. The format is cell-based. As to conditions: 72 hours incubation, absence of the inducer Ponasterone A, read-out: IC50 RKO p27 uninduced (proliferating). As to the method: The anti-proliferative/cytotoxic activity of the compounds described herein, can be tested on subclones of RKO (RKOp27) human colon adenocarcinoma cells (Schmidt et al., Oncogene 19, 2423-2429; 2000) using the Alamar Blue cell viability assay (described in O'Brien et al. Eur J Biochem 267, 5421-5426, 2000). The compounds are dissolved as 20 mM solutions in dimethylsulfoxide (DMSO) and subsequently diluted in semi-logarithmic steps. DMSO dilutions are further diluted 1:100 into Dulbecco's modified Eagle's medium (DMEM) containing 10% fetal calf serum to a final concentration twice as much as the final concentration in the test. RKO subclones are seeded into 96 well flat bottom plates at a density of 5000 cells per well in a volume of 50 μl per well. 24 hours after seeding the 50 μl each of the compound dilutions in DMEM medium are added into each well of the 96 Well plate. Each compound dilution is tested as quadruplicates. Wells containing untreated control cells are filled with 50 μl DMEM medium containing 1% DMSO. The cells are then incubated with the substances for 72 hours at 37° C. in a humified atmosphere containing 5% carbon dioxide. To determine the viability of the cells, 10 μl of an Alamar Blue solution (Biosource) are added and the fluorescence is measured at an extinction of 544 nm and an emission of 590 nm. For the calculation of the cell viability the emission value from untreated cells is set as 100% viability and the emission rates of treated cells are set in relation to the values of untreated cells. Viabilities are expressed as % values.
The corresponding IC50 values of the compounds for anti-proliferative/cytotoxic activity are determined from the concentration-effect curves.
Representative IC50 values for anti-proliferation/cytotoxicity determined in the mentioned assay follow from the following table A, in which the numbers of the compounds correspond to the numbers of the examples.
A general note: Resazurin is reduced to fluorescent resorufin, in cell work by metabolically active cells.

The subject of test [2] is RKO colon adenocarcinoma cells (RKOp27) arrested by the expression of ectopic p27Kip1. In words: Alamar Blue cell viability assay on RKOp27 cells arrested by p27Kip1 expression induced by Ponasterone A. As to conditions: Homo sapiens, 72 hours incubation, 10 μM Ponasterone A, read-out: IC50 RKO p27 induced (arrested). In kind it is cell-based. As to the method:
To determine the cell cycle specific mode of action, subclones of RKO colon adenocarcinoma cells (RKOp27 or RKOp21 as described by Schmidt et al. in Oncogene 19, 2423-2429; 2000) are seeded into 96 well flat bottom plates at a density of 15000 cells per well in a volume of 50 μl per well in DMEM growth medium with 10% FCS containing 10 μM Ponasterone A. 24 hours after seeding the 50 μl each of the compound dilutions in DMEM medium are added into each well of the 96 Well plate. Each compound dilution is tested as quadruplicates. Wells containing untreated control cells are filled with 50 μl DMEM medium containing 1% DMSO. The cells are then incubated with the substances for 72 hours at 37° C. in a humidified atmosphere containing 5% carbon dioxide. To determine the viability of the cells, 10 μl of an Alamar Blue solution (Biosource) are added and the fluorescence was measured at an extinction of 544 nm and an emission of 590 nm. For the calculation of the cell viability the emission value from untreated cells is set as 100% viability and the emission rates of treated cells are set in relation to the values of untreated cells. Viabilities are expressed as % values. Viability is compared of proliferating cells grown in the absence of the inducer Ponasterone A, versus viability of cells arrested by the expression of ectopic p27Kip1 induced by Ponasterone A.

As a reminder, the IC50 is the concentration at which inhibition is half-maximal. For the compound `COc1ccccc1CCC(=O)Nc1sc2c(c1C#N)CCN(C(=O)CC(C)n1ccnc1)C2` (racemic) [Example 56, N-[3-Cyano-6-((RS)-3-imidazol-1-yl-butanoyl)-4,5,6,7-tetrahydro-thieno[2,3-c]pyridin-2-yl]-3-(2-methoxy-phenyl)-propionamide], the values for the IC50 in test [1] and in test [2] were 0.3 to 2 µM and at least 40 µM, respectively.
Consider `COc1cccc(CCC(=O)Nc2sc3c(c2C#N)CCN(C(=O)CC(C)n2ccnc2)C3)c1` (racemic) [Example 57, N-[3-Cyano-6-((RS)-3-imidazol-1-yl-butanoyl)-4,5,6,7-tetrahydro-thieno[2,3-c]pyridin-2-yl]-3-(3-methoxy-phenyl)-propionamide], for which the IC50 in test [1] is 0.3 to 2 µM; in test [2], at least 40 µM.
In the case of `CCOc1cccc(C(C)CC(=O)Nc2sc3c(c2C#N)CCN(C(=O)Cc2ccccn2)C3)c1` (racemic) [Example 61, (RS)—N-[3-Cyano-6-(2-pyridin-2-yl-ethanoyl)-4,5,6,7-tetrahydro-thieno[2,3-c]pyridin-2-yl]-3-(3-ethoxy-phenyl)-butyramide], the IC50 in test [1] was 0.3 to 2 µM; in test [2], over 100 µM.
The matching figures for `COc1ccccc1C(C)CC(=O)Nc1sc2c(c1C#N)CCN(C(=O)Cc1ccccn1)C2` (racemic) [Example 62, (RS)—N-[3-Cyano-6-(2-pyridin-2-yl-ethanoyl)-4,5,6,7-tetrahydro-thieno[2,3-c]pyridin-2-yl]-3-(2-methoxy-phenyl)-butyramide]: at most 0.3 µM and over 100 µM.
For `CCOc1ccccc1C(C)CC(=O)Nc1sc2c(c1C#N)CCN(C(=O)Cc1ccccn1)C2` (racemic) [Example 63, (RS)—N-[3-Cyano-6-(2-pyridin-2-yl-ethanoyl)-4,5,6,7-tetrahydro-thieno[2,3-c]pyridin-2-yl]-3-(2-ethoxy-phenyl)-butyramide], in that order: at most 0.3 µM and at least 10 µM.
The matching figures for `COc1cccc(C(C)CC(=O)Nc2sc3c(c2C#N)CCN(C(=O)Cc2cccnc2)C3)c1` (racemic) [Example 64, (RS)—N-[3-Cyano-6-(2-pyridin-3-yl-ethanoyl)-4,5,6,7-tetrahydro-thieno[2,3-c]pyridin-2-yl]-3-(3-methoxy-phenyl)-butyramide]: 0.3 to 2 µM and at least 40 µM.
With `COc1ccccc1C(C)CC(=O)Nc1sc2c(c1C#N)CCN(C(=O)Cc1cccnc1)C2` (racemic) [Example 66, (RS)—N-[3-Cyano-6-(2-pyridin-3-yl-ethanoyl)-4,5,6,7-tetrahydro-thieno[2,3-c]pyridin-2-yl]-3-(2-methoxy-phenyl)-butyramide], the IC50 is at most 0.3 µM in test [1] and over 100 µM in test [2].
The matching figures for `CCOc1ccccc1C(C)CC(=O)Nc1sc2c(c1C#N)CCN(C(=O)Cc1cccnc1)C2` (racemic) [Example 67, (RS)—N-[3-Cyano-6-(2-pyridin-3-yl-ethanoyl)-4,5,6,7-tetrahydro-thieno[2,3-c]pyridin-2-yl]-3-(2-ethoxy-phenyl)-butyramide]: at most 0.3 µM and over 100 µM.
Consider `CCOc1cccc(C(C)CC(=O)Nc2sc3c(c2C#N)CCN(C(=O)Cc2ccncc2)C3)c1` (racemic) [Example 69, (RS)—N-[3-Cyano-6-(2-pyridin-4-yl-ethanoyl)-4,5,6,7-tetrahydro-thieno[2,3-c]pyridin-2-yl]-3-(3-ethoxy-phenyl)-butyramide], for which the figures for the IC50 in test [1] and in test [2] were 0.3 to 2 µM and over 100 µM, respectively.
The matching figures for `COc1ccccc1C(C)CC(=O)Nc1sc2c(c1C#N)CCN(C(=O)Cc1ccncc1)C2` (racemic) [Example 70, (RS)—N-[3-Cyano-6-(2-pyridin-4-yl-ethanoyl)-4,5,6,7-tetrahydro-thieno[2,3-c]pyridin-2-yl]-3-(2-methoxy-phenyl)-butyramide]: at most 0.3 µM and at least 40 µM.
The matching figures for `CCOc1ccccc1C(C)CC(=O)Nc1sc2c(c1C#N)CCN(C(=O)Cc1ccncc1)C2` (racemic) [Example 71, (RS)—N-[3-Cyano-6-(2-pyridin-4-yl-ethanoyl)-4,5,6,7-tetrahydro-thieno[2,3-c]pyridin-2-yl]-3-(2-ethoxy-phenyl)-butyramide]: at most 0.3 µM and over 100 µM.
As to `COc1ccccc1C(C)CC(=O)Nc1sc2c(c1C#N)CCN(C(=O)CCc1cccnc1)C2` (racemic) [Example 77, (RS)—N-[3-Cyano-6-(3-pyridin-3-yl-propanoyl)-4,5,6,7-tetrahydro-thieno[2,3-c]pyridin-2-yl]-3-(2-methoxy-phenyl)-butyramide], the IC50 was 0.3 to 2 µM in test [1] and over 100 µM in test [2].
Take `CCOc1ccccc1C(C)CC(=O)Nc1sc2c(c1C#N)CCN(C(=O)CCc1cccnc1)C2` (racemic) [Example 78, (RS)—N-[3-Cyano-6-(3-pyridin-3-yl-propanoyl)-4,5,6,7-tetrahydro-thieno[2,3-c]pyridin-2-yl]-3-(2-ethoxy-phenyl)-butyramide]: the values for the half-maximal inhibitory concentration (IC50) in test [1] and in test [2] were 0.3 to 2 µM and at least 40 µM, respectively.
In the case of `COc1cccc(C(C)CC(=O)Nc2sc3c(c2C#N)CCN(C(=O)CCc2ccncc2)C3)c1` (racemic) [Example 79, (RS)—N-[3-Cyano-6-(3-pyridin-4-yl-propanoyl)-4,5,6,7-tetrahydro-thieno[2,3-c]pyridin-2-yl]-3-(3-methoxy-phenyl)-butyramide], the IC50 in test [1] is 0.3 to 2 µM; in test [2] it was over 100 µM.
Regarding `COc1ccccc1C(C)CC(=O)Nc1sc2c(c1C#N)CCN(C(=O)Cn1ccnc1)C2` (racemic) [Example 82, (RS)—N-[3-Cyano-6-(2-Imidazol-1-yl-ethanoyl)-4,5,6,7-tetrahydro-thieno[2,3-c]pyridin-2-yl]-3-(2-methoxy-phenyl)-butyramide], the IC50 was 0.3 to 2 µM in test [1] and at least 40 µM in test [2].
Regarding `CCOc1ccccc1C(C)CC(=O)Nc1sc2c(c1C#N)CCN(C(=O)Cn1ccnc1)C2` (racemic) [Example 83, (RS)—N-[3-Cyano-6-(2-imidazol-1-yl-ethanoyl)-4,5,6,7-tetrahydro-thieno[2,3-c]pyridin-2-yl]-3-(2-ethoxy-phenyl)-butyramide], the 50% inhibitory concentration (IC50) in test [1] was at most 0.3 µM; in test [2], at least 40 µM.
The matching figures for `CCCC(=O)N1CCc2c(sc(NC(=O)CC(C)c3cccc(OC)c3)c2C#N)C1` (racemic) [Example 87, (RS)—N-(6-Butyryl-3-cyano-4,5,6,7-tetrahydro-thieno[2,3-c]pyridin-2-yl)-3-(3-methoxy-phenyl)-butyramide]: 0.3 to 2 µM and over 100 µM.
For `CCCC(=O)N1CCc2c(sc(NC(=O)CC(C)c3ccccc3OC)c2C#N)C1` (racemic) [Example 89, (RS)—N-(6-Butyryl-3-cyano-4,5,6,7-tetrahydro-thieno[2,3-c]pyridin-2-yl)-3-(2-methoxy-phenyl)-butyramide], in that order: at most 0.3 µM and over 100 µM.
Take `CCCC(=O)N1CCc2c(sc(NC(=O)CC(C)c3ccccc3OCC)c2C#N)C1` (racemic) [Example 90, (RS)—N-(6-Butyryl-3-cyano-4,5,6,7-tetrahydro-thieno[2,3-c]pyridin-2-yl)-3-(2-ethoxy-phenyl)-butyramide]: the IC50 in test [1] was at most 0.3 µM; in test [2], over 100 µM.
For the compound `COc1ccccc1C(C)CC(=O)Nc1sc2c(c1C#N)CCN(C(=O)CCc1ccccn1)C2` (racemic) [Example 94, (RS)—N-[3-Cyano-6-(3-pyridin-2-yl-propanoyl)-4,5,6,7-tetrahydro-thieno[2,3-c]pyridin-2-yl]-3-(2-methoxy-phenyl)-butyramide], the IC50 in test [1] was 0.3 to 2 µM; in test [2], over 100 µM.
The matching figures for `COc1ccccc1C(C)CC(=O)Nc1sc2c(c1C#N)CCN(C(=O)CCn1ccnc1)C2` (racemic) [Example 99, (RS)—N-[3-Cyano-6-(3-imidazol-1-yl-propanoyl)-4,5,6,7-tetrahydro-thieno[2,3-c]pyridin-2-yl]-3-(2-methoxy-phenyl)-butyramide]: 0.3 to 2 µM and at least 40 µM.
